Assays:
[1] = molecular target: T1, Anti-mouse IgG (whole molecule) peroxidase conjugate (Armoracia rusticana, UniProt P00433); experiment: Assay of peroxidase-antibody conjugate utilizing PBBA (Example 5); type: biochemical; conditions: for Signal (with PBBA): 40µl of PBBA 0.01 mg/ml; for Signal: Background: with PBBA
T1 sequence (P00433 31-338 limits assumed): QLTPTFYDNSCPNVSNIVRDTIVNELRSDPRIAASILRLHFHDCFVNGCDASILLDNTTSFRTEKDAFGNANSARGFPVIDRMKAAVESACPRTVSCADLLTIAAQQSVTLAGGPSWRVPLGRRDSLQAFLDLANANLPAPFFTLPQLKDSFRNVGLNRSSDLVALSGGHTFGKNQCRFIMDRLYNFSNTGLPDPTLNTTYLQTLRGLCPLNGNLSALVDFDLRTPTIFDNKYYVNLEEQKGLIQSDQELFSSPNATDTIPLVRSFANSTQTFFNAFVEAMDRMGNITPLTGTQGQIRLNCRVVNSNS
Procedure: Anti-mouse IgG (whole molecule) peroxidase conjugate (Sigma Chemical Co.) was diluted (1:5000) in 0.1 mol/l Tris buffer (pH 8.6). The luminol-hydrogen peroxide was prepared as described previously. The following reagents were added to a cuvette: 100µl of luminol-hydrogen peroxide (1:10 dilution), either 40µl of PBBA (0.01 mg/ml in 0.1 mol/l Tris buffer) or as a control, 40µl of Tris buffer (0.1 mol/l, pH 8.6), and different amounts of anti-mouse IgG (5µl, 10µl, 20µl, 30µl, 40µl). The reagents were mixed and the light emission was measured using a Berthold Biolumat LB9500C.

HRP = molecular target: T2, HRP (Armoracia rusticana, UniProt P00433); experiment: Enhanced chemiluminescent anti-oxidant assay using PBBA (Example 6); type: biochemical, horseradish
T2 construct: purchased Sigma Chemical Co
T2 sequence (P00433 31-338): T1 sequence (P00433 31-338 limits assumed)
Procedure: The luminol-peroxide reagent (100µl), PBBA (40µl, 1:100 dilution of 1 mg/ml) and HRP (10µl, 1:50,000 dilution of 1mg/ml stock) were mixed together and the light emission measured for 25 minutes. A sample of human serum (2µl, 1:10 dilution in 0.1 mol/l Tris buffer, pH 8.6) was added and the light emission measured for a further 75 minutes.

[2] = in the presence of PBBA, result in words

## OB(O)c1ccc(Br)cc1 [PBBA, para-bromophenylboronic acid]
[1]; Anti-mouse IgG-HRP 0 (µl)
  Signal (with PBBA): 18,832
[1]; Anti-mouse IgG-HRP 5 (µl), 1:5000 dilution
  Signal (with PBBA): 27,665
[1]; Anti-mouse IgG-HRP 5 (µl)
  Signal: Background: 1.5
[1]; Anti-mouse IgG-HRP 10 (µl), 1:5000 dilution
  Signal (with PBBA): 32,849
[1]; Anti-mouse IgG-HRP 10 (µl)
  Signal: Background: 1.7
[1]; Anti-mouse IgG-HRP 20 (µl), 1:5000 dilution
  Signal (with PBBA): 68,994
[1]; Anti-mouse IgG-HRP 20 (µl)
  Signal: Background: 3.7
[1]; Anti-mouse IgG-HRP 30 (µl), 1:5000 dilution
  Signal (with PBBA): 407,087
[1]; Anti-mouse IgG-HRP 30 (µl)
  Signal: Background: 21.6
[1]; [2]
  light emission: increased
  signal to background ratio for the assay of the HRP conjugate: significantly improved
HRP; Time 0 minutes, before serum
  Light units: 5
HRP; Time 10 minutes, before serum
  Light units: 16
HRP; Time 20 minutes, before serum
  Light units: 68
HRP; Time 25 minutes, serum added
  Light units: 88
HRP; Time 26 minutes, after human serum added
  Light units: 3
HRP; Time 30 minutes, after human serum added
  Light units: 3
HRP; Time 50 minutes, after human serum added
  Light units: 5
HRP; Time 60 minutes, after human serum added
  Light units: 15
HRP; Time 70 minutes, after human serum added
  Light units: 49
HRP; Time 80 minutes, after human serum added
  Light units: 60
HRP; Time 90 minutes, after human serum added
  Light units: 81
HRP; Time 100 minutes, after human serum added
  Light units: 90
HRP; after addition of human serum (2µl, 1:10 dilution)
  lag after which the light emission returns to its original level: 34 min

Source: EP0626016B1, “[…] […]” (BRITISH TECHNOLOGY GROUP LIMITED, priority 1992, dated 1993)
